{"source": "patent US10386375B2", "about": "“Methods and systems for the diagnosis and treatment of androgen disorders” (Function Promoting Therapies LLC, priority 2013, dated 2019)", "key": {"[1]": {"assay": "Percent free testosterone calculated in serum samples from the TED trial", "assay_type": "in vitro ADME, men", "description": "Assessment of FT Concentrations in Clinical Trials. FT determined using the dynamic model developed in this study (cFTZBJ) and Vermeulen's equation (cFTV) (as implemented by Mazer, (Mazer 2009)) were compared with those measured using equilibrium dialysis in samples derived from randomized testosterone trials in men (Spitzer et al 2012) and women (Huang et al 2012). These samples had been collected in fasting state in the morning, stored at −80° C., and never thawed.\nAt baseline and after 12-weeks of testosterone or placebo administration, total testosterone concentrations were measured using LC-MS/MS and SHBG concentrations using a two-site immunofluorometric assay (DELFIA®, Perkin-Elmer, Waltham, Mass.) (21). FT was measured in the same samples by equilibrium dialysis(Bhasin et al 2012).\nApplication of new Multi-step Dynamic Binding Model with Complex Allostery to Clinical Trials Data. SHBG and albumin are predominantly the two proteins that bind testosterone with significant affinity; the binding affinities of transcortin and orosomucoid for testosterone are extremely low. […]"}, "SHBG": {"biological_target": "T1, SHBG (Homo sapiens, UniProt P04278)", "T1 sequence (P04278 30-402)": "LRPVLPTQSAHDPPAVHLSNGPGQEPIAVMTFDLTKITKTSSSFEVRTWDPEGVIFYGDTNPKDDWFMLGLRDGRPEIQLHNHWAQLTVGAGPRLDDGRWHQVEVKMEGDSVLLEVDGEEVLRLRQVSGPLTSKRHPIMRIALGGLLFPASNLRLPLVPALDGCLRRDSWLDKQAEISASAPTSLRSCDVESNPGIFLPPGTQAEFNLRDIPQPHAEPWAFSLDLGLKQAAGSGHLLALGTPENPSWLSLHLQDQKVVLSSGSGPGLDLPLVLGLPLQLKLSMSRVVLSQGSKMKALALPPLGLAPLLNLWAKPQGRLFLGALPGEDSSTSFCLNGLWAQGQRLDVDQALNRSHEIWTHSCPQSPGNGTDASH", "conditions": "Model A, Vermeulen's model: equal affinity for each monomer in SHBG dimer; fixed model value; cited from earlier work"}}}
{"smiles": "C[C@]12CC[C@H]3[C@@H](CCC4=CC(=O)CC[C@@]43C)[C@@H]1CC[C@@H]2O", "note": "[testosterone, 17-β-hydroxyandrost-4-en-3-one]", "values": [{"measurement": "fraction of circulating testosterone which is free", "setting": "[1]; calculated with the new dynamic model (cFTZBJ), clinical trial samples", "result": "2.9±0.4", "unit": "%"}, {"measurement": "% cFTV", "setting": "[1]; percent free testosterone calculated with Vermeulen's equation, as generally assumed", "result": "1.5±0.4", "unit": "%"}, {"measurement": "Kd", "setting": "SHBG", "result": 1, "unit": "nM"}]}
